Data as given in ChEMBL document CHEMBL2413072, “Synthesis and in vitro anticancer studies of novel C-2 arylidene congeners of lantadenes” (2013).

Columns and labels:
Type in all cases: functional
[1] = tested on: T47D; assay: Growth inhibition of human T47D cells assessed as cell growth at 10^-8 M by sulforhodamine B assay; settings: read-out: Activity
[2] = tested on: DU-145; assay: Growth inhibition of human DU145 cells by sulforhodamine B assay
[3] = tested on: NCI-H322M; assay: Growth inhibition of human NCI-H322M cells assessed as cell growth at 10^-8 M by sulforhodamine B assay; settings: read-out: Activity
[4] = tested on: Malme-3M; assay: Growth inhibition of human MALME-3M cells assessed as cell growth at 10^-8 M by sulforhodamine B assay; settings: read-out: Activity
[5] = Growth inhibition of human NCI-ADR-RES cells assessed as cell growth at 10^-7 M by sulforhodamine B assay; settings: read-out: Activity
[6] = tested on: NCI-H460; assay: Growth inhibition of human NCI-H460 cells assessed as cell growth at 10^-7 M by sulforhodamine B assay; settings: read-out: Activity
[7] = tested on: HCT-116; assay: Growth inhibition of human HCT116 cells assessed as cell growth at 10^-6 M by sulforhodamine B assay; settings: read-out: Activity
[8] = tested on: PC-3; assay: Growth inhibition of human PC3 cells assessed as cell growth at 10^-4 M by sulforhodamine B assay; settings: read-out: Activity
[9] = tested on: RXF 393; assay: Growth inhibition of human RXF393 cells assessed as cell growth at 10^-8 M by sulforhodamine B assay; settings: read-out: Activity
[10] = tested on: COLO 205; assay: Growth inhibition of human COLO205 cells assessed as cell growth at 10^-8 M by sulforhodamine B assay; settings: read-out: Activity
[11] = tested on: PC-3; assay: Growth inhibition of human PC3 cells assessed as cell growth at 10^-8 M by sulforhodamine B assay; settings: read-out: Activity
[12] = tested on: MDA-MB-435; assay: Growth inhibition of human MDA-MB-435 cells assessed as cell growth at 10^-8 M by sulforhodamine B assay; settings: read-out: Activity
[13] = tested on: RPMI-8226; assay: Growth inhibition of human RPMI8226 cells assessed as cell growth at 10^-6 M by sulforhodamine B assay; settings: read-out: Activity
[14] = Growth inhibition of human HCC2998 cells assessed as cell growth at 10^-8 M by sulforhodamine B assay; settings: HCC 2998, read-out: Activity
[15] = tested on: U-251; assay: Growth inhibition of human U251 cells by sulforhodamine B assay
[16] = Growth inhibition of human Hs 578T cells by sulforhodamine B assay
[17] = tested on: OVCAR-8; assay: Growth inhibition of human OVCAR8 cells assessed as cell growth at 10^-6 M by sulforhodamine B assay; settings: read-out: Activity
[18] = tested on: LOX IMVI; assay: Growth inhibition of human LOXIMVI cells assessed as cell growth at 10^-7 M by sulforhodamine B assay; settings: read-out: Activity
[19] = tested on: HOP-92; assay: Growth inhibition of human HOP92 cells by sulforhodamine B assay
[20] = tested on: RXF 393; assay: Growth inhibition of human RXF393 cells assessed as cell growth at 10^-7 M by sulforhodamine B assay; settings: read-out: Activity
[21] = tested on: SF-295; assay: Growth inhibition of human SF295 cells by sulforhodamine B assay
[22] = tested on: SW-620; assay: Growth inhibition of human SW620 cells assessed as cell growth at 10^-8 M by sulforhodamine B assay; settings: read-out: Activity
[23] = tested on: SK-MEL-28; assay: Growth inhibition of human SK-MEL-28 cells assessed as cell growth at 10^-4 M by sulforhodamine B assay; settings: read-out: Activity
[24] = tested on: MOLT-4; assay: Growth inhibition of human MOLT4 cells assessed as cell growth at 10^-8 M by sulforhodamine B assay; settings: read-out: Activity
[25] = tested on: SF-539; assay: Growth inhibition of human SF539 cells assessed as cell growth at 10^-6 M by sulforhodamine B assay; settings: read-out: Activity
[26] = tested on: K562; assay: Growth inhibition of human K562 cells assessed as cell growth at 10^-6 M by sulforhodamine B assay; settings: read-out: Activity
[27] = tested on: SK-MEL-5; assay: Growth inhibition of human SK-MEL-5 cells by sulforhodamine B assay
[28] = tested on: LOX IMVI; assay: Growth inhibition of human LOXIMVI cells assessed as cell growth at 10^-4 M by sulforhodamine B assay; settings: read-out: Activity
[29] = tested on: ACHN; assay: Growth inhibition of human ACHN cells assessed as cell growth at 10^-8 M by sulforhodamine B assay; settings: read-out: Activity
[30] = tested on: HOP-62; assay: Growth inhibition of human HOP62 cells by sulforhodamine B assay
[31] = tested on: NCI-H522; assay: Growth inhibition of human NCI-H522 cells assessed as cell growth at 10^-7 M by sulforhodamine B assay; settings: read-out: Activity
[32] = tested on: HCT-116; assay: Growth inhibition of human HCT116 cells by sulforhodamine B assay
[33] = tested on: HCT-15; assay: Growth inhibition of human HCT15 cells assessed as cell growth at 10^-8 M by sulforhodamine B assay; settings: read-out: Activity
[34] = tested on: NCI-H460; assay: Growth inhibition of human NCI-H460 cells assessed as cell growth at 10^-8 M by sulforhodamine B assay; settings: read-out: Activity
[35] = tested on: K562; assay: Growth inhibition of human K562 cells assessed as cell growth at 10^-7 M by sulforhodamine B assay; settings: read-out: Activity
[36] = tested on: KM12; assay: Growth inhibition of human KM12 cells assessed as cell growth at 10^-7 M by sulforhodamine B assay; settings: read-out: Activity
[37] = Growth inhibition of human NCI-ADR-RES cells assessed as cell growth at 10^-8 M by sulforhodamine B assay; settings: read-out: Activity
[38] = tested on: SK-OV-3; assay: Growth inhibition of human SKOV3 cells assessed as cell growth at 10^-7 M by sulforhodamine B assay; settings: read-out: Activity
[39] = tested on: SN12C; assay: Growth inhibition of human SN12C cells assessed as cell growth at 10^-6 M by sulforhodamine B assay; settings: read-out: Activity
[40] = read-out: LC50 (the source's name)
[41] = read-out: pLC50 (the source's name) (converted)

SMILES: CC(C)=CC(=O)O[C@@H]1CC(C)(C)C[C@H]2C3=CC[C@@H]4[C@@]5(C)CC[C@H](O)C(C)(C)[C@@H]5CC[C@@]4(C)[C@]3(C)CC[C@@]12C(=O)O [Reduced Lantadene B]
- growth at 0.01 µM [1]: 93%
- GI50 ([2]; read-out: GI50): 7.7 µM
- CC50 [2, 40]: 61.6 µM
- TGI ([2]; read-out: TGI): 23.5 µM
- GI50 ([2]; read-out: pGI50 (converted)): 7.76 µM
- CC50 [2, 41]: 61.7 µM
- TGI ([2]; read-out: pTGI (converted)): 23.4 µM
- growth at 0.01 µM [3]: 90%
- growth at 0.01 µM [4]: 94%
- growth at 0.1 µM [5]: 99%
- growth at 0.1 µM [6]: 100%
- growth at 1 µM [7]: 72%
- growth at 100 µM [8]: -71%
- growth at 0.01 µM [9]: 97%
- growth at 0.01 µM [10]: 107%
- growth at 0.01 µM [11]: 97%
- growth at 0.01 µM [12]: 100%
- growth at 1 µM [13]: 65%
- growth at 0.01 µM [14]: 99%
- GI50 ([15]; read-out: GI50): 2.62 µM
- CC50 [15, 40]: 71.6 µM
- TGI ([15]; read-out: TGI): 16.7 µM
- GI50 ([15]; read-out: pGI50 (converted)): 2.63 µM
- CC50 [15, 41]: 70.8 µM
- TGI ([15]; read-out: pTGI (converted)): 16.6 µM
- GI50 ([16]; read-out: GI50): 3.04 µM
- CC50 [16, 40]: > 100 µM
- TGI ([16]; read-out: TGI): 12.3 µM
- GI50 ([16]; read-out: pGI50 (converted)): 3.02 µM
- CC50 [16, 41]: > 100 µM
- TGI ([16]; read-out: pTGI (converted)): 12.3 µM
- growth at 1 µM [17]: 82%
- growth at 0.1 µM [18]: 93%
- GI50 ([19]; read-out: GI50): 1.51 µM
- CC50 [19, 40]: 16.3 µM
- TGI ([19]; read-out: TGI): 4.23 µM
- GI50 ([19]; read-out: pGI50 (converted)): 1.51 µM
- CC50 [19, 41]: 16.2 µM
- TGI ([19]; read-out: pTGI (converted)): 4.27 µM
- growth at 0.1 µM [20]: 95%
- GI50 ([21]; read-out: GI50): 1.45 µM
- CC50 [21, 40]: 52.8 µM
- TGI ([21]; read-out: TGI): 11.1 µM
- GI50 ([21]; read-out: pGI50 (converted)): 1.45 µM
- CC50 [21, 41]: 52.5 µM
- TGI ([21]; read-out: pTGI (converted)): 11.2 µM
- growth at 0.01 µM [22]: 102%
- growth at 100 µM [23]: -64%
- growth at 0.01 µM [24]: 106%
- growth at 1 µM [25]: 92%
- growth at 1 µM [26]: 69%
- GI50 ([27]; read-out: GI50): 2.86 µM
- CC50 [27, 40]: 66.7 µM
- TGI ([27]; read-out: TGI): 16.5 µM
- GI50 ([27]; read-out: pGI50 (converted)): 2.88 µM
- CC50 [27, 41]: 66.1 µM
- TGI ([27]; read-out: pTGI (converted)): 16.6 µM
- growth at 100 µM [28]: -35%
- growth at 0.01 µM [29]: 103%
- GI50 ([30]; read-out: GI50): 7.47 µM
- LC50 (concentration killing 50% of cells) ([30]; read-out: LC50): 79.8 µM
- TGI ([30]; read-out: TGI): 26.6 µM
- GI50 ([30]; read-out: pGI50 (converted)): 7.41 µM
- LC50 (concentration killing 50% of cells) ([30]; read-out: pLC50 (converted)): 79.4 µM
- TGI ([30]; read-out: pTGI (converted)): 26.3 µM
- growth at 0.1 µM [31]: 102%
- GI50 ([32]; read-out: GI50): 2.67 µM
- LC50 ([32]; read-out: LC50): 50.2 µM
- TGI ([32]; read-out: TGI): 15.9 µM
- GI50 ([32]; read-out: pGI50 (converted)): 2.69 µM
- LC50 ([32]; read-out: pLC50 (converted)): 50.1 µM
- TGI ([32]; read-out: pTGI (converted)): 15.8 µM
- growth at 0.01 µM [33]: 93%
- growth at 0.01 µM [34]: 105%
- growth at 0.1 µM [35]: 91%
- growth at 0.1 µM [36]: 79%
- growth at 0.01 µM [37]: 107%
- growth at 0.1 µM [38]: 103%
- growth at 1 µM [39]: 89%
